Assay results as given in patent US20230143612A1 (Arbutus Biopharma Corporation, priority 2020, published 2023).

Molecular target: PD-L1 His protein / PD-1 Fc protein (Homo sapiens, UniProt Q9NZQ7)
Assay: HTRF Assay (PD-1/PD-L1 interaction)
Type: binding
Settings: PD-L1 His 6 nM, PD-1 Fc 6 nM
Description: PD-L1 His protein was prepared and added at the final concentration of 6 nM in the White opaque 384 well plate (Corning cat #3824BC). PD-L1 small molecule inhibitors were diluted by 3-fold starting from 20 μM and a final concentration of 0.001 μM and added to the well. PD-1 Fc protein was added at the final concentration of 6 nM. PD-L1 His protein, PD-L1 small molecule inhibitors, and PD1 Fc proteins were added to the well in this order, with each 5 μl volume, and were incubated for 15 minutes at room temperature. PAb anti-Human IgG-XL665 (Cisbio, cat #61HFCXLA) and Mab anti-6HIS Tb cryptate Gold (Cisbio, cat #61HI2TLA) were mixed at 6.7 nM and 0.35 nM respectively, and total 5 μl volume of mixture was added to the well and incubated at room temperature for 1 hour. The plate was read using PerkinElmer Envision plate reader and data was analyzed by Prism 6 software.

Chain of PD-L1 His protein / PD-1 Fc protein (Q9NZQ7 19-238 limits assumed): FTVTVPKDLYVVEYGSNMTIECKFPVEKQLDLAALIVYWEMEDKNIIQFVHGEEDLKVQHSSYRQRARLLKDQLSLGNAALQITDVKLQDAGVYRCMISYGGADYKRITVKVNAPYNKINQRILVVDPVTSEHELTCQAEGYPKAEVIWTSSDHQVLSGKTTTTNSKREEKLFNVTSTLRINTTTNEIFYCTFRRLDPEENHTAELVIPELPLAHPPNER

In order of rising IC50:
1. COc1nc(-c2cccc(-c3cccc(-c4ccc5nn(CCO)c(=O)n5c4)c3Cl)c2Cl)ccc1CNC[C@@H]1CCC(=O)N1 [Example 239, (S)-6-(2,2′-Dichloro-3′-(6-methoxy-5-((((5-oxopyrrolidin-2-yl)methyl)amino)methyl)pyridin-2-yl)-[1,1′-biphenyl]-3-yl)-2-(2-hydroxyethyl)-[1,2,4]triazolo[4,3-a]pyridin-3(2H)-one]  0.1 nM
2. COc1nc(-c2cccc(-c3cccc(-c4ccn5c(=O)c(C6=NCC(O)CN6)cnc5c4)c3Cl)c2Cl)ccc1CNC[C@@H]1CCC(=O)N1 (stereo partly drawn) [Example 161, 8-(2,2′-Dichloro-3′-(6-methoxy-5-(((((S)-5-oxopyrrolidin-2-yl)methyl)amino)methyl)pyridin-2-yl)-[1,1′-biphenyl]-3-yl)-3-(5-hydroxy-1,4,5,6-tetrahydropyrimidin-2-yl)-4H-pyrido[1,2-a]pyrimidin-4-one]  0.1 nM
3. COc1nc(-c2cccc(-c3cccc(-c4ccn5c(=O)c(CNC[C@@H](O)CC(=O)O)cnc5c4)c3Cl)c2Cl)cc(F)c1CNC[C@@H]1CCC(=O)N1 [Example 270, (3S)-4-[[8-[2-Chloro-3-[2-chloro-3-[4-fluoro-6-methoxy-5-[[[(2S)-5-oxopyrrolidin-2-yl]methylamino]methyl]-2-pyridyl]phenyl]phenyl]-4-oxo-pyrido[1,2-a]pyrimidin-3-yl]methylamino]-3-hydroxy-butanoic acid]  0.1 nM
4. COc1nc(-c2cccc(-c3cccc(-c4cnc5c(Cl)c(CNC[C@@H]6CCC(=O)N6)sc5c4)c3Cl)c2Cl)ccc1CNC[C@@H]1CCC(=O)N1 [Example 123, (S)-5-((((3-Chloro-6-(2,2′-dichloro-3′-(6-methoxy-5-(((((S)-5-oxopyrrolidin-2-yl)methyl)amino)methyl)pyridin-2-yl)-[1,1′-biphenyl]-3-yl)thieno[3,2-b]pyridin-2-yl)methyl)amino)methyl)pyrrolidin-2-one]  0.2 nM
5. COc1nc(-c2cccc(-c3cccc(-c4ccn5c(=O)c(CN6CC(CO)C6)cnc5c4)c3Cl)c2Cl)ccc1CN1CC(C(=O)O)C1 [Example 136, 1-((6-(2,2′-Dichloro-3′-(3-((3-(hydroxymethyl)azetidin-1-yl)methyl)-4-oxo-4H-pyrido[1,2-a]pyrimidin-8-yl)-[1,1′-biphenyl]-3-yl)-2-methoxypyridin-3-yl)methyl)azetidine-3-carboxylic acid]  0.2 nM
6. N#CCCOc1cc(/C=C/c2cccc(-c3cccc(-c4ccn5c(=O)c(CNC[C@@H]6CCC(=O)N6)cnc5c4)c3Cl)c2Cl)c(Cl)cc1CN1CC[C@H](C(=O)O)C1 [Example 173, (S)-1-(5-Chloro-2-(2-cyanoethoxy)-4-((E)-2-(2,2′-dichloro-3′-(4-oxo-3-(((((S)-5-oxopyrrolidin-2-yl)methyl)amino)methyl)-4H-pyrido[1,2-a]pyrimidin-8-yl)-[1,1′-biphenyl]-3-yl)vinyl)benzyl)pyrrolidine-3-carboxylic acid]  0.4 nM
7. COc1nc(-c2cccc(-c3cccc(-c4ccc5c(CNC[C@H](C)O)cn(C)c5n4)c3Cl)c2Cl)ccc1CNC[C@@H]1CCC(=O)N1 [Example 411, (5S)-5-[[[6-[2-Chloro-3-[2-chloro-3-[3-[[[(2S)-2-hydroxypropyl]amino]methyl]-1-methyl-pyrrolo[2,3-b]pyridin-6-yl]phenyl]phenyl]-2-methoxy-3-pyridyl]methylamino]methyl]pyrrolidin-2-one]  1.6 nM
8. COc1nc(-c2cccc(-c3cccc(-c4ccn5c(=O)c(CNC[C@@H]6CCC(=O)N6)cnc5c4)c3Cl)c2Cl)ccc1CN1CC(C(C)(C)O)C1 [Example 112, (S)-8-(2,2′-Dichloro-3′-(5-((3-(2-hydroxypropan-2-yl)azetidin-1-yl)methyl)-6-methoxypyridin-2-yl)-[1,1′-biphenyl]-3-yl)-3-((((5-oxopyrrolidin-2-yl)methyl)amino)methyl)-4H-pyrido[1,2-a]pyrimidin-4-one]  2.9 nM
9. COC(=O)C1CN(Cc2cnc3cc(-c4cccc(-c5cccc(-c6ccc(CNC[C@@H]7CCC(=O)N7)c(OC)n6)c5Cl)c4Cl)ccn3c2=O)C1 [Example 162, (S)-Methyl 1-((8-(2,2′-dichloro-3′-(6-methoxy-5-((((5-oxopyrrolidin-2-yl)methyl)amino)methyl)pyridin-2-yl)-[1,1′-biphenyl]-3-yl)-4-oxo-4H-pyrido[1,2-a]pyrimidin-3-yl)methyl)azetidine-3-carboxylate]  3.8 nM
10. COc1nc(/C=C2\CCc3c2cccc3-c2cccc(-c3ccn4c(=O)c(CNC[C@@H]5CCC(=O)N5)cnc4c3)c2Cl)c(Cl)cc1CNC[C@@H]1CCC(=O)N1 [Example 177, 8-(2-Chloro-3-((E)-1-((3-chloro-6-methoxy-5-(((((S)-5-oxopyrrolidin-2-yl)methyl)amino)methyl)pyridin-2-yl)methylene)-2,3-dihydro-1H-inden-4-yl)phenyl)-3-(((((S)-5-oxopyrrolidin-2-yl)methyl)amino)methyl)-4H-pyrido[1,2-a]pyrimidin-4-one]  5 nM
11. COc1nc(-c2cccc(-c3cccc(-c4cc(F)c5c(c4)CCN(C[C@@H]4CCC(=O)N4)C5)c3Cl)c2Cl)ccc1CNC[C@@H]1CCC(=O)N1 [Example 425, (S)-5-((6-(2,2′-Dichloro-3′-(6-methoxy-5-(((((S)-5-oxopyrrolidin-2-yl)methyl)-amino)-methyl)-pyridin-2-yl)-[1,1′-biphenyl]-3-yl)-8-fluoro-3,4-dihydroisoquinolin-2(1H)-yl)methyl)pyrrolidin-2-one]  8.3 nM
12. Cc1c(OCc2cc(OCc3cncc(C#N)c3)c(CNC[C@@H]3CCC(=O)N3)cc2Cl)cccc1-c1cccc(-c2ccc3c(c2)C(=O)N(C)CC(=O)N3CCNC[C@@H]2CCC(=O)N2)c1C [Example 27, 5-((4-Chloro-5-(((2,2′-dimethyl-3′-(4-methyl-2,5-dioxo-1-(2-((((S)-5-oxopyrrolidin-2-yl)methyl)amino)ethyl)-2,3,4,5-tetrahydro-1H-benzo[e][1,4]diazepin-7-yl)-[1,1′-biphenyl]-3-yl)oxy)methyl)-2-(((((S)-5-oxopyrrolidin-2-yl)methyl)amino)methyl)phenoxy)methyl)nicotinonitrile]  9.9 nM
13. COc1nc(-c2cccc(-c3cccc(-c4ccn5c(=O)c(CN[C@H]6C[C@](C)(O)C6)cnc5c4)c3Cl)c2Cl)cc(Cl)c1CNC[C@@H]1CCC(=O)N1 [Example 393, 8-(2,2′-Dichloro-3′-(4-chloro-6-methoxy-5-(((((S)-5-oxopyrrolidin-2-yl)methyl)amino)methyl)pyridin-2-yl)-[1,1′-biphenyl]-3-yl)-3-((((1r,3r)-3-hydroxy-3-methylcyclobutyl)amino)methyl)-4H-pyrido[1,2-a]pyrimidin-4-one]  62 nM
14. COc1nc(-c2cccc(-c3cccc(-c4ccn5c(=O)c(CNC[C@@H]6CCC(=O)N6)cnc5c4)c3C)c2C(F)(F)F)ccc1CNC[C@@H]1CCC(=O)N1 [Example 96, 8-(3′-(6-Methoxy-5-(((((S)-5-oxopyrrolidin-2-yl)methyl)amino)methyl)pyridin-2-yl)-2-methyl-2′-(trifluoromethyl)-[1,1′-biphenyl]-3-yl)-3-(((((S)-5-oxopyrrolidin-2-yl)methyl)amino)methyl)-4H-pyrido[1,2-a]pyrimidin-4-one]  68 nM
15. COc1nc(-c2cccc(-c3cccc(-c4ccc5c(c4F)CN(C[C@@H]4CCC(=O)N4)CC5)c3Cl)c2Cl)ccc1CNC[C@@H]1CCC(=O)N1 [Example 428, (S)-5-((7-(2,2′-Dichloro-3′-(6-methoxy-5-(((((S)-5-oxopyrrolidin-2-yl)methyl)-amino)methyl)-pyridin-2-yl)-[1,1′-biphenyl]-3-yl)-8-fluoro-3,4-dihydroisoquinolin-2(1H)-yl)methyl)-pyrrolidin-2-one]  140 nM
16. COc1nc(-c2cccc(-c3cccc(-c4cnc5c(CNC[C@@H]6CCC(=O)N6)cn(C)c5c4)c3Cl)c2Cl)ccc1CNC[C@@H]1CCC(=O)N1 [Example 375, (S)-5-((((6-(2,2′-Dichloro-3′-(1-methyl-3-(((((S)-5-oxopyrrolidin-2-yl)methyl)amino)methyl)-1H-pyrrolo[3,2-b]pyridin-6-yl)-[1,1′-biphenyl]-3-yl)-2-methoxypyridin-3-yl)methyl)amino)methyl)pyrrolidin-2-one]  180 nM
17. COc1nc(-c2cccc(-c3cccc(-c4cc5c(=O)n(C)c(CNC[C@@H]6CCO6)nn5c4)c3Cl)c2Cl)ccc1CNC[C@@H]1CCC(=O)N1 [Example 472, 6-[2-Chloro-3-[2-chloro-3-[6-methoxy-5-[[[(2S)-5-oxopyrrolidin-2-yl]methylamino]methyl]-2-pyridyl]phenyl]phenyl]-3-methyl-2-[[[(2S)-oxetan-2-yl]methylamino]methyl]pyrrolo[2,1-f][1,2,4]triazin-4-one]  400 nM
18. COc1nc(-c2cccc(-c3cccc(-c4ccc5c(CNC[C@@H]6CCCO6)cn(C)c5n4)c3Cl)c2Cl)ccc1CNC[C@@H]1CCC(=O)N1 [Example 444, (5S)-5-[[[6-[2-Chloro-3-[2-chloro-3-[1-methyl-3-[[[(2S)-tetrahydrofuran-2-yl]methylamino]methyl]pyrrolo[2,3-b]pyridin-6-yl]phenyl]phenyl]-2-methoxy-3-pyridyl]methylamino]methyl]pyrrolidin-2-one]  920 nM
19. COC(=O)N(C)CCN(C)Cc1ccc(-c2cccc(-c3cccc(-c4ccn5c(=O)c(CN(C)CCN(C)C(=O)OC)cnc5c4)c3Cl)c2Cl)nc1OC [Example 299, methyl (2-(((8-(2,2′-dichloro-3′-(6-methoxy-5-(((2-((methoxycarbonyl)(methyl)amino)ethyl)(methyl)amino)methyl)pyridin-2-yl)-[1,1′-biphenyl]-3-yl)-4-oxo-4H-pyrido[1,2-a]pyrimidin-3-yl)methyl)(methyl)amino)ethyl)(methyl)carbamate]  3000 nM
